Key:
[1] = Cmax of aliskiren hemifumarate following 2 week oral dosing of aliskiren hemifumarate at 10 mg.Kg-1 level studied on day 14 in female Callithrix jacchus; type: ADME, organism-based; conditions: marmoset, plasma
[2] = Cmax/dose (0-96h) of unlabeled aliskiren hemifumarate following oral administration of aliskiren hemifumarate at 100 mg.Kg-1 level in rat; type: ADME, organism-based, Albino HAN:WIST, Plasma; conditions: in vivo
[3] = Tmax of aliskiren hemifumarate following 2 week oral dosing of aliskiren hemifumarate at 100 mg.Kg-1 level studied on day 1 in female Callithrix jacchus; type: ADME, organism-based; conditions: marmoset, plasma
[4] = AUCspec of aliskiren hemifumarate following 2 week oral dosing of aliskiren hemifumarate at 100 mg.Kg-1 level studied on day 14 in male Callithrix jacchus; type: ADME, organism-based, Plasma; conditions: marmoset, in vivo, 336 h
[5] = t1/2 of aliskiren hemifumarate following 2 week oral dosing of aliskiren hemifumarate at 50 mg.Kg-1 level studied on day 14 in female Callithrix jacchus; type: ADME, organism-based; conditions: marmoset, plasma
hERG (KCNH2) = hERG (KCNH2) (Homo sapiens, UniProt Q12809); assay: Effects of 100 uM aliskiren hemifumarate on current through cloned hERG channel expressed in human embryonic kidney cell; type: cell-based; parameters: conc 100 uM, dose level Intermediate; conditions: HEK293 cells that express cloned hERG channel, read-out: Inhibitory activity
[6] = Effect of 2 week oral dosing of aliskiren hemifumarate at 100 mg.Kg-1 level on plasma magnesium level in male Callithrix jacchus; type: toxicity, organism-based; conditions: marmoset, 336 h
[7] = Cmax (0-96h) of unlabeled aliskiren hemifumarate following intravenous administration of aliskiren hemifumarate at 10 mg.Kg-1 level in rat; type: ADME, organism-based; conditions: Albino HAN:WIST, plasma
[8] = AUCspec of aliskiren hemifumarate following 2 week oral dosing of aliskiren hemifumarate at 100 mg.Kg-1 level studied on day 14 in female Callithrix jacchus; type: ADME, organism-based, Plasma; conditions: marmoset, in vivo, 336 h
[9] = Cmaxspec of aliskiren hemifumarate following 2 week oral dosing of aliskiren hemifumarate at 100 mg.Kg-1 level studied on day 14 in female Callithrix jacchus; type: ADME, organism-based, Plasma; conditions: marmoset, in vivo, 336 h
[10] = AUC(0-24h) of aliskiren hemifumarate following 2 week oral dosing of aliskiren hemifumarate at 100 mg.Kg-1 level studied on day 1 in male Callithrix jacchus; type: ADME, organism-based; conditions: marmoset, plasma
[11] = Effect of 2 week oral dosing of aliskiren hemifumarate at 10 mg.Kg-1 level on blood urea nitrogen level in female Callithrix jacchus; type: toxicity, organism-based, Plasma; conditions: marmoset, 336 h
[12] = Tmax of aliskiren hemifumarate following single dosing of SPP100B oral solution at 640 mg level studied on day 1 in men; type: ADME, organism-based; conditions: male, human, plasma
[13] = AUC(0-24h) of aliskiren hemifumarate following 2 week oral dosing of aliskiren hemifumarate at 10 mg.Kg-1 level studied on day 14 in female Callithrix jacchus; type: ADME, organism-based; conditions: marmoset, plasma
[14] = Effect of 2 week oral dosing of aliskiren hemifumarate at 100 mg.Kg-1 level on hematological parameter values in female Callithrix jacchus; type: toxicity, organism-based, Plasma; conditions: marmoset, in vivo, 336 h
[15] = AUC(0-24h) of aliskiren hemifumarate following 2 week oral dosing of aliskiren hemifumarate at 100 mg.Kg-1 level studied on day 14 in male Callithrix jacchus; type: ADME, organism-based; conditions: marmoset, plasma
[16] = Cmax of aliskiren hemifumarate following 4 week oral dietary dosing of aliskiren hemifumarate at 1000 mg.Kg-1 level in male mouse; type: ADME, organism-based; conditions: CB6F1-TGrasH2, mouse, in vivo
CYP1A2 [17] = molecular target: T1, CYP1A2 (Homo sapiens, UniProt P05177); assay: Inhibitory activity of 20 uM SPP100 on 502 Pmoles of cDNA-derived CYP1A2 enzyme in microsome prepared from human lymphoblastoid cell line; type: ADME, microsomes; parameters: conc 20 uM, interact cpd conc 50 uM; conditions: probe phenacetin
T1 sequence (P05177 whole entry): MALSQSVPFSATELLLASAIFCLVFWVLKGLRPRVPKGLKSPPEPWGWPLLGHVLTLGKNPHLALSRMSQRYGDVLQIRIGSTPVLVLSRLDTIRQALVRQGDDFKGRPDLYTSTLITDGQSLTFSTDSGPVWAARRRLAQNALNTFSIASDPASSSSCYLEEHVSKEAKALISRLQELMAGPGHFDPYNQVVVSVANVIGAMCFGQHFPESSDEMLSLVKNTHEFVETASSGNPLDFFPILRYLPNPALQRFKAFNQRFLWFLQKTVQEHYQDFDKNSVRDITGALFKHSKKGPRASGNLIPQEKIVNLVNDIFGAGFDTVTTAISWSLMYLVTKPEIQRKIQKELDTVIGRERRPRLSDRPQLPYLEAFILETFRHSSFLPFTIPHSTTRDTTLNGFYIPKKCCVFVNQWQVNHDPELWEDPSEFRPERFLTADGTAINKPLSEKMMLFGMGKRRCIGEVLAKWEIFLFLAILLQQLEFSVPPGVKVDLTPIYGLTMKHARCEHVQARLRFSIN

CYP2C9 = CYP2C9 (Homo sapiens, UniProt P11712); assay: Inhibitory activity of 200 uM SPP100 on 222 Pmoles of cDNA-derived CYP2C9 enzyme in microsome prepared from human lymphoblastoid cell line; type: ADME, microsomes; parameters: conc 200 uM, interact cpd conc 6 uM; conditions: probe diclofenac
CYP1A2 [18] = molecular target: T1, CYP1A2; assay: Inhibitory activity of 20 uM SPP100 on 545 Pmoles of cDNA-derived CYP1A2 enzyme in microsome prepared from human lymphoblastoid cell line; type: ADME, microsomes; parameters: conc 20 uM, interact cpd conc 50 uM; conditions: probe phenacetin
[19] = % SPP100 (0-168h) recovered in urine following single oral dose of [14C] aliskiren hemifumarate at 3 mg.Kg-1 level in marmoset; type: ADME, organism-based, Callithrix jacchus; conditions: in vivo
[20] = % of radioactivity recovered as aliskiren in urine following oral administration of [14C] aliskiren hemifumarate at 100 mg.Kg-1 level in rat; type: ADME, organism-based, Albino HAN:WIST; conditions: in vivo
Cytochrome P450 2D6 = Cytochrome P450 2D6 (Homo sapiens, UniProt P10635); assay: Activity of human recombinant CYP2D6 assessed as enzyme contribution (% total relative CL) towards [14C]SPP100 hemifumarate metabolism in human liver microsome; type: ADME; conditions: microsomes
[21] = Excretion (24h) of radioactivity in urine following oral administration of [14C] aliskiren hemifumarate at 100 mg.Kg-1 level in rat; type: ADME, organism-based, Lister-Hooded; conditions: in vivo
[22] = Mean excretion of radioactivity (0-96h) in urine and faeces following single intravenous dose of 10 mg.Kg-1 [14C] aliskiren hemifumarate in rat; type: ADME, organism-based, Albino HAN:WIST, Urine/Feces; conditions: in vivo
[23] = Excretion of radioactivity (0-96h) in faeces following single oral dose of 100 mg.Kg-1 [14C] aliskiren hemifumarate in rat; type: ADME, organism-based, Albino HAN:WIST, Feces; conditions: in vivo
[24] = Total excretion (0-72h) of radioactivity in urine, faeces and cage wash following single intravenous dose of 10 mg.Kg-1 [14C] aliskiren hemifumarate in mouse; type: ADME, organism-based, TgRasH2, Urine/Feces; conditions: in vivo
[25] = Concentration of radioactivity in the liver following repeated oral administration of [14C] aliskiren hemifumarate at 100 mg.Kg-1 level studied at 24h after 7th dose in rat; type: ADME, organism-based, Albino HAN:WIST; conditions: in vivo
[26] = Excretion (168h) of radioactivity in faeces following intravenous administration of [14C] aliskiren hemifumarate at 10 mg.Kg-1 level in rat; type: ADME, organism-based, Lister-Hooded, Feces; conditions: in vivo
Cytochrome P450 2E1 = Cytochrome P450 2E1 (Homo sapiens, UniProt P05181); assay: Activity of human recombinant CYP2E1 assessed as enzyme contribution (% total relative CL) towards [14C]SPP100 hemifumarate metabolism in human liver microsome; type: ADME; conditions: microsomes
[27] = Excretion (0-168h) of radioactivity in urine following oral administration of [14C] aliskiren hemifumarate at 3 mg.Kg-1 level in marmoset; type: ADME, organism-based, Callithrix jacchus; conditions: in vivo
[28] = Concentration of radioactivity in the kidney medulla following repeated oral administration of [14C] aliskiren hemifumarate at 100 mg.Kg-1 level studied at 2h after 3rd dose in rat; type: ADME, organism-based, Albino HAN:WIST, Renal medulla; conditions: in vivo

hERG (KCNH2), sequence (Q12809 whole entry): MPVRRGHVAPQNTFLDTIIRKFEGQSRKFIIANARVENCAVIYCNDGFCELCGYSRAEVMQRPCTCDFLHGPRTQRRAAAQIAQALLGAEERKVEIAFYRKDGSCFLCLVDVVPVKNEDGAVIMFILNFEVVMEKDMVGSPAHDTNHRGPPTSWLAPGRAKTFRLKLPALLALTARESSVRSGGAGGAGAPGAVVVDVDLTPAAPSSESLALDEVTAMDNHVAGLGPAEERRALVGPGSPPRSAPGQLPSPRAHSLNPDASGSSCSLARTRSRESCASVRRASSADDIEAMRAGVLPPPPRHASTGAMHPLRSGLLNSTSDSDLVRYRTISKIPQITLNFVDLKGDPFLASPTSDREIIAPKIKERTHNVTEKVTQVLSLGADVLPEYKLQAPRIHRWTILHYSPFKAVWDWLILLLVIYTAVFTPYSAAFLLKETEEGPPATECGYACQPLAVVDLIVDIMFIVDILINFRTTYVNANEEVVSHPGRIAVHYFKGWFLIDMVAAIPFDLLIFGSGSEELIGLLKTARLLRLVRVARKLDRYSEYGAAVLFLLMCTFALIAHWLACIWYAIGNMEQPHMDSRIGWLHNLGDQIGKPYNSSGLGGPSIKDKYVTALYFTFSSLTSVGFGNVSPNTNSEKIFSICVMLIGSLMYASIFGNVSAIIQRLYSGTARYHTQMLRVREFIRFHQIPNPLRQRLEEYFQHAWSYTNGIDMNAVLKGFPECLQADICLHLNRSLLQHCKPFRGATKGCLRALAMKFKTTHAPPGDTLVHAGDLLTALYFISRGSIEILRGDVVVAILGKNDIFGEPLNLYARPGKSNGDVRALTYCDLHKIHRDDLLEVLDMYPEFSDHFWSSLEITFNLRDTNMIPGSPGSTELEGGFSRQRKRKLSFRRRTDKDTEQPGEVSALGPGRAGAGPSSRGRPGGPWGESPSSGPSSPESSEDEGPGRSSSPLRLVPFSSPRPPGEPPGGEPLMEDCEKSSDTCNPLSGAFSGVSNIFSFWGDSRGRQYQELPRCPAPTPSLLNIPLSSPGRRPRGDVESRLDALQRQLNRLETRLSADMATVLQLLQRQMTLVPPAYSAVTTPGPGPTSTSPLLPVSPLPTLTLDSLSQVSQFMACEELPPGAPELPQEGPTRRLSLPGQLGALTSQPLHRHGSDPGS
CYP2C9, sequence (P11712 whole entry): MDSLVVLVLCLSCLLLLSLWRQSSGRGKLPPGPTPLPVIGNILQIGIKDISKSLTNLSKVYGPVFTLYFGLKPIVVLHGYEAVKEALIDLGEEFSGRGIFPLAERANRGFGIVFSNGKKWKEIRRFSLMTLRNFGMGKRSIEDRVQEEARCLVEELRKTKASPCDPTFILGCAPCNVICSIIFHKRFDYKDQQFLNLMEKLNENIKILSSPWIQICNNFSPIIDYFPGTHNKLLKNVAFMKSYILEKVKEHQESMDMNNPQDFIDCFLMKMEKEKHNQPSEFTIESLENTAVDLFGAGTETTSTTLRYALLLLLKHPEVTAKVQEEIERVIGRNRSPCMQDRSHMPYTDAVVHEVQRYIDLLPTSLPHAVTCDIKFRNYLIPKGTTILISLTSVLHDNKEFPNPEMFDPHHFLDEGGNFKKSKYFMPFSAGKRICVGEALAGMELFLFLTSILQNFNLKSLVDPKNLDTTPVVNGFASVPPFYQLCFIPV
Cytochrome P450 2D6, sequence (P10635 whole entry): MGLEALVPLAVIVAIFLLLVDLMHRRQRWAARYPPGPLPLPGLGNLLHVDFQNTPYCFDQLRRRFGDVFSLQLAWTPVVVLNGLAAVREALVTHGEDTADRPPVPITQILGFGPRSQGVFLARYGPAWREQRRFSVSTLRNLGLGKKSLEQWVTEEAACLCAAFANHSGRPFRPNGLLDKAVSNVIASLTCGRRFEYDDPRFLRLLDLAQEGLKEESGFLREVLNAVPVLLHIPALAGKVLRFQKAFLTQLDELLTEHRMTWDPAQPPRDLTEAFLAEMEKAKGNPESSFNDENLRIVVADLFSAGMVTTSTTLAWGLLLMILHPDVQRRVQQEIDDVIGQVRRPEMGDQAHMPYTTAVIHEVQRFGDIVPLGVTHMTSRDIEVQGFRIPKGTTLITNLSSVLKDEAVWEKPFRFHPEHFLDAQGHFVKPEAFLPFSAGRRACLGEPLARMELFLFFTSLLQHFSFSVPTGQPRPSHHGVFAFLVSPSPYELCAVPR
Cytochrome P450 2E1, sequence (P05181 whole entry): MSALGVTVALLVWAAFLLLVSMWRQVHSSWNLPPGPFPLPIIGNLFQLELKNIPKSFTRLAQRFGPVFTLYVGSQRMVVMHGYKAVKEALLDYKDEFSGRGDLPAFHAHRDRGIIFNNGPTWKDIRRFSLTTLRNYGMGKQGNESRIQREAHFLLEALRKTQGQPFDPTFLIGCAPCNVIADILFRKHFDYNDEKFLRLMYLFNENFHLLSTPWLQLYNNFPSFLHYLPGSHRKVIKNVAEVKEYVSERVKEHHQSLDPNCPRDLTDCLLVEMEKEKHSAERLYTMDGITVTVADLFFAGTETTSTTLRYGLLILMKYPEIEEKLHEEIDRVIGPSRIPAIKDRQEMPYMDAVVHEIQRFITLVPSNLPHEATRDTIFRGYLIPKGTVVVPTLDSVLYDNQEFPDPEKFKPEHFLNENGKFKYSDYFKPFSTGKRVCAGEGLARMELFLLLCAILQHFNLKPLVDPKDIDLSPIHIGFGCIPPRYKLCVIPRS

Question: Which Cmax [1] does the source give for `COCCCOc1cc(C[C@@H](C[C@H](N)[C@@H](O)C[C@H](C(=O)NCC(C)(C)C(N)=O)C(C)C)C(C)C)ccc1OC.COCCCOc1cc(C[C@@H](C[C@H](N)[C@@H](O)C[C@H](C(=O)NCC(C)(C)C(N)=O)C(C)C)C(C)C)ccc1OC.O=C(O)/C=C/C(=O)O` [ALISKIREN FUMARATE] here?
Answer: The Cmax was 6730 ng/mL.

Question: What about the Cmax normalised [2] of the same compound?
Answer: Its Cmax normalised is 0.0027 (umol/L)/(mg/kg).

Question: And the Tmax [3]?
Answer: Its Tmax is 1 h.

Question: What about the AUC normalised [4] of the same compound?
Answer: Its AUC normalised is 1.09 ((ug.h.ml-1)/(mg/kg).

Question: What about the half-life [5] of the same compound?
Answer: The half-life was 8.19 h.

Question: And the inhibition at 100 µM (hERG (KCNH2))?
Answer: The inhibition at 100 µM was 6%.

Question: What about the “Plasma magnesium_CHANGE_BY” value [6] of the same compound?
Answer: The value was 130%.

Question: And the Cmax [7]?
Answer: The Cmax was 29.2 µM.

Question: And the AUC normalised [8]?
Answer: The AUC normalised was 1.42 ((ug.h.ml-1)/(mg/kg).

Question: What about the Cmax normalised [9] of the same compound?
Answer: The Cmax normalised was 0.106 (ug/ml)/(mg/kg).

Question: What about the AUC(0-t) at 24 h [10] of the same compound?
Answer: The AUC(0-t) at 24 h was 76400 ng·h/mL.

Question: And the BUN_CHANGE_BY [11]?
Answer: The BUN_CHANGE_BY was 69%.

Question: What about the Tmax [12] of the same compound?
Answer: Its Tmax is 2.1 h.

Question: What about the AUC at 24 h [13] of the same compound?
Answer: The AUC at 24 h was 29000 ng·h/mL.

Question: What about the Change in hematology [14] of the same compound?
Answer: The Change in hematology was “OUTCOME = Hematological parameter values did not differ from control values. No animals died during the study”.

Question: What about the AUC at 24 h [15] of the same compound?
Answer: Its AUC at 24 h is 109000 ng·h/mL.

Question: What about the Cmax [16] of the same compound?
Answer: Its Cmax is 879 ng/mL.

Question: Which results are given for `COCCCOc1cc(C[C@@H](C[C@H](N)[C@@H](O)C[C@H](C(=O)NCC(C)(C)C(N)=O)C(C)C)C(C)C)ccc1OC`?
Answer: inhibition at 20 µM (CYP1A2 [17]): 2.5%; inhibition at 200 µM (CYP2C9): 14.9%; inhibition at 20 µM (CYP1A2 [18]): -5.8%; Compound recovery [19]: 2.3%; Compound recovery [20]: <= 2%

Question: Which results are given for `COCCCOc1cc(C[C@@H](C[C@H](N)[C@@H](O)C[C@H](C(=O)NCC([14CH3])([14CH3])C(N)=O)C(C)C)C(C)C)ccc1OC.O=C(O)/C=C/C(=O)O`?
Answer: Activity (Cytochrome P450 2D6): 0.38%; Radiolabel recovery [21]: 73%; Radiolabel recovery [22]: 94.8%; Radiolabel recovery [23]: 4.2%; Radiolabel recovery [24]: 93.38%; Radiolabel recovery [25]: OUTCOME = Detected; Radiolabel recovery [26]: 75%; Activity (Cytochrome P450 2E1): 0.06%; Radiolabel recovery [27]: 4.5%; Radiolabel recovery [28]: OUTCOME = Detected

Reference: ChEMBL document CHEMBL3508693 (2016)
